Results: patent publication US11452707B2, “Use of cannabidiol in preparation of drugs for resisting against influenza” (priority 2017, dated 2022)
Like-named read-outs stand apart in the source and are kept apart here.

Experiments:
H1N1 WSN (A/WSN/33) [1] = experiment: H1N1 WSN-infected mice: pathological section of lung tissue (HE); assay type: in vivo, influenza A virus H1N1; conditions: DPI 8; 20 mg/kg/d i.p. from Day 4
H1N1 WSN (A/WSN/33) [2] = experiment: H1N1 WSN-infected mice: pulmonary vascular permeability test (Evans Blue); assay type: in vivo, influenza A virus H1N1; conditions: DPI 8; 20 mg/kg/d i.p. from Day 4; vs high toxicity group; Tamiflu P<0.05, CBD P<0.01
H1N1 WSN [3] = assay type: cell-based, influenza A virus H1N1; conditions: 24 h
[4] = oral and systemic use; cited from earlier work
[5] = mouse, in vivo; cited from earlier work
H1N1 WSN (A/WSN/33) [6] = experiment: H1N1 WSN-infected mice: lung index; assay type: in vivo, influenza A virus H1N1; conditions: DPI 8; for lung injury index of mice caused by H1N1 WSN infection: 20 mg/kg/d i.p. from Day 4, vs high toxicity group, P<0.05
IAV = tested on: IAV; parameters: species or system Influenza A Virus; conditions: in vivo
[7] = tested on: H5N1 A/great black-headed gull/Qinghai/2009 (H5N1); parameters: species or system influenza A virus H5N1; conditions: in vivo, 20 mg/kg/day
H1N1 WSN (A/WSN/33) [8] = experiment: H1N1 WSN-infected mice: inflammatory cells in alveolar lavage fluid (Diff-Quick staining); assay type: in vivo, influenza A virus H1N1; conditions: DPI 8, 20 mg/kg/d; for number of macrophages in the alveolar lavage fluid: Tamiflu P<0.01, CBD P<0.001
H1N1 WSN [9] = assay type: cell-based, influenza A virus H1N1; conditions: 24 h; remark: listed apart in the source
H1N1 WSN (A/WSN/33) [10] = tested on: H1N1 WSN (A/WSN/33); parameters: species or system influenza A virus H1N1; conditions: in vivo; for activities of the infected mice / body temperature drop / body weight drop / discomfort caused by influenza / mice died / mice in group / mortality of mice caused by H1N1 WSN infection: ip, 20 mg/kg/day
H5N1 [11] = assay type: cell-based, influenza A virus H5N1; conditions: 1 μM; 24 h
H5N1 [12] = tested on: H5N1; parameters: species or system influenza A virus H5N1; conditions: in vivo
H1N1 = tested on: H1N1; parameters: species or system influenza A virus H1N1; conditions: in vivo
[13] = of the 119 deaths; cited from earlier work

## C=C(C)[C@@H]1CCC(C)=C[C@H]1c1c(O)cc(CCCCC)cc1O [CBD, Cannabidiol]
H1N1 WSN (A/WSN/33) [1]
  inflammatory cell infiltration (lung pathology): significantly reduced
H1N1 WSN (A/WSN/33) [2]
  mouse pulmonary capillary permeability caused by H1N1 WSN infection: significantly reduced
H1N1 WSN [3]; 5 μM
  expression of NP gene in H1N1 WSN: significantly reduced
  expression of PA gene in H1N1 WSN: significantly reduced
  expression of PB1 gene in H1N1 WSN: significantly reduced
  expression of PB2 gene in H1N1 WSN: significantly reduced
[4]
  severity of joint damage and the acute and chronic courses of arthritis: significantly reduce
[5]
  LPS-induced acute lung injury: inhibits
H1N1 WSN (A/WSN/33) [6]
  lung injury index of mice caused by H1N1 WSN infection: significantly reduced
H1N1 WSN (A/WSN/33) [6]; both 20 mg/kg/d
  lung index, CBD group compared with Tamiflu group: no significant difference
IAV; 20 mg/kg/day
  mortality of mice caused by IAV infection: significantly inhibited
IAV; 60 mg/kg/day
  mortality of mice caused by IAV infection: significantly inhibited
[7]
  activities of the infected mice: significantly increased
  discomfort caused by influenza: significantly alleviated
  mortality (mice died / mice in group): 10/10
  mortality compared with the influenza group: no significant difference
  survival time of mice after H5N1 infection prolonged by: 24 h
[7]; ip
  body temperature drop: significantly inhibited
  body weight drop caused by H5N1: Significantly Inhibited
H1N1 WSN (A/WSN/33) [8]
  number of neutrophils in the alveolar lavage fluid, compared with the Tamiflu group: very significant reduction
  number of macrophages in the alveolar lavage fluid: significantly reduced
H1N1 WSN (A/WSN/33) [8]; P<0.05
  number of macrophages in the alveolar lavage fluid, compared with the Tamiflu group: significant reduction
H1N1 WSN (A/WSN/33) [8]; vs IAV treatment group, P<0.01
  number of lymphocytes in the alveolar lavage fluid: significantly reduced
H1N1 WSN (A/WSN/33) [8]; vs high toxicity treatment group, P<0.001
  number of neutrophils in the alveolar lavage fluid: significantly reduced
H1N1 WSN [9]; 5 μM
  expression of PA gene in H1N1 WSN: significantly reduced
  expression of PB1 gene in H1N1 WSN: significantly reduced
H1N1 WSN (A/WSN/33) [10]
  mortality, CBD group compared with Tamiflu group: no significant difference
  activities of the infected mice: significantly increased
  body temperature drop: significantly inhibited
  body weight drop: significantly inhibited
  discomfort caused by influenza: significantly alleviated
  mice died / mice in group: 10/20
  mortality of mice caused by H1N1 WSN infection: significantly reduced
H5N1 [11]
  expression of NP gene in H5N1: significantly reduced
  expression of PA gene in H5N1: significantly reduced
  expression of PB1 gene in H5N1: significantly reduced
  expression of PB2 gene in H5N1: significantly reduced
H5N1 [12]
  mortality in mice caused by IAV infection: inhibited the same mortality
H1N1
  mortality in mice caused by IAV infection: inhibited the same mortality

## CCOC(=O)C1=C[C@@H](OC(CC)CC)[C@H](NC(C)=O)[C@@H](N)C1 [Tamiflu, oseltamivir, reference compound]
H1N1 WSN (A/WSN/33) [1]
  inflammatory cell infiltration (lung pathology): significantly reduced
H1N1 WSN (A/WSN/33) [2]
  mouse pulmonary capillary permeability caused by H1N1 WSN infection: significantly reduced
H1N1 WSN [3]; 10 μM
  expression of NP gene in H1N1 WSN: no significant inhibitory effect
  expression of PA gene in H1N1 WSN: no significant inhibitory effect
  expression of PB1 gene in H1N1 WSN: no significant inhibitory effect
  expression of PB2 gene in H1N1 WSN: no significant inhibitory effect
H1N1 WSN (A/WSN/33) [6]
  lung injury index of mice caused by H1N1 WSN infection: significantly reduced
IAV; 20 mg/kg/day
  mortality of mice caused by IAV infection: significantly inhibited
H1N1 WSN (A/WSN/33) [8]
  number of macrophages in the alveolar lavage fluid: significantly reduced
H1N1 WSN [9]; 10 μM
  expression of PA gene in H1N1 WSN: no significant inhibitory effect
  expression of PB1 gene in H1N1 WSN: no significant inhibitory effect
H1N1 WSN (A/WSN/33) [10]
  activities of the infected mice: significantly increased
  body temperature drop: significantly inhibited
  body weight drop: significantly inhibited
  discomfort caused by influenza: significantly alleviated
  mice died / mice in group: 9/20
  mortality of mice caused by H1N1 WSN infection: significantly reduced
[13]
  deaths who took Tamiflu that experienced severe illness or death within 12 hours after taking the drug: 38
H5N1 [11]
  expression of NP gene in H5N1: significantly reduced
  expression of PA gene in H5N1: significantly reduced
  expression of PB1 gene in H5N1: significantly reduced
  expression of PB2 gene in H5N1: significantly reduced
